Results from patent US10463754B2, “Process for decontaminating or sterilizing an article” (priority 2014, dated 2019).
Where two headings read alike, the source gives them in different places.

System: spores of Bacillus subtilis
Assay type: cell-based
Experimental: The efficacy of the inventive process is assessed using a time kill suspension test method and spores of Bacillus subtilis.
Peracetic acid (PAA) and hydrogen peroxide (H2O2) are prepared as concentrated stocks (3× concentrate). Each test contains 100 μl of the PAA concentrate and 100 μl of the H2O2 concentrate. Controls containing only PAA or H2O2 are also prepared. These contain 100 μl of either the PAA concentrate or H2O2 concentrate and 100 μl of de-ionized water. To each test, 100 μl of spores are added while starting the timer concurrently. The samples are mixed thoroughly. The temperature of the samples is room temperature. At the appropriate contact times, 10 μl of the appropriate test sample are placed into 90 μl of the appropriate neutralizing solution, mixed thoroughly and incubated for at least 10 minutes. Ten fold serial dilutions are prepared through 10^−6 and plated using the drop counting method. The plates are then incubated aerobically at 37° C. for 1-2 days. Following incubation, colony forming units (CFU) are counted using standard plate count techniques and converted to log 10 values for analysis.

Compound	Time (min) to achieve 4 log reduction (PAA 0.005% by weight, H2O2 0.00% (PAA alone), extrapolated from data for PAA 0.08, 0.16 and 0.32%) [min]	Time (min) to achieve 4 log reduction (PAA 0.01% by weight, H2O2 0.00% (PAA alone), extrapolated from data for PAA 0.08, 0.16 and 0.32%) [min]	Time (min) to achieve 4 log reduction (PAA 0.02% by weight, H2O2 0.00% (PAA alone), extrapolated from data for PAA 0.08, 0.16 and 0.32%) [min]	Time (min) to achieve 4 log reduction (PAA 0.04% by weight, H2O2 0.00% (PAA alone), extrapolated from data for PAA 0.08, 0.16 and 0.32%) [min]	Time (min) to achieve 4 log reduction (PAA 0.08% by weight, H2O2 0.00% (PAA alone)) [min]	Time (min) to achieve 4 log reduction (PAA 0.16% by weight, H2O2 0.00% (PAA alone)) [min]	Time (min) to achieve 4 log reduction (H2O2 0.10% by weight, PAA 0.00% (H2O2 alone), extrapolated from experimental data) [min]	Time (min) to achieve 4 log reduction (H2O2 0.20% by weight, PAA 0.00% (H2O2 alone), extrapolated from experimental data) [min]	Time (min) to achieve 4 log reduction (H2O2 0.40% by weight, PAA 0.00% (H2O2 alone), extrapolated from experimental data) [min]	Time (min) to achieve 4 log reduction (H2O2 0.80% by weight, PAA 0.00% (H2O2 alone)) [min]	Time (min) to achieve 4 log reduction (H2O2 1.60% by weight, PAA 0.00% (H2O2 alone)) [min]	Time (min) to achieve 4 log reduction (H2O2 3.20% by weight, PAA 0.00% (H2O2 alone)) [min]	Time (min) to achieve 4 log reduction (H2O2 6.40% by weight, PAA 0.00% (H2O2 alone), room temperature) [min]
CC(=O)OO [PAA, Peracetic acid]	711625	67744.68	6449.101	613.9362	70.40	4.64							
OO [H2O2, hydrogen peroxide]							2305.13	1213.99	639.34	343.04	168.96	97.28	48.64
